Data reported in patent US4469707A, “Method for treatment of senile dementia” (Astra Lakemedel Aktiebolag, priority 1983, dated 1984).
Entries after “also recorded” stand apart in the source; their conditions may differ.

Tests used:
[1] = system: oxotremorine induced tremor; assay: Potentiation of oxotremorine induced tremor; format: in vivo; conditions: mice; for Mean tremor score after pretreatment: score 0-2
Protocol: (§1) Saline was administered as a blank. The tremor intensity was assessed visually for a 60 min period starting from the injection of oxotremorine and physostigmine respectively. The following rating scores were used:
(§2) 1--moderate or discontinuous tremor of the head and forelimbs
(§3) 2--strong tremor involving the whole body

[2] = system: physostigmine induced tremor; assay: Potentiation of physostigmine induced tremor; format: in vivo; conditions: mice; for Mean tremor score after pretreatment: score 0-2
Protocol: as §1, §2, §3

tremor = assay: Tremor caused by alaproclate per se; format: in vivo, mice; conditions: in words
Protocol: Saline was administered as a blank. The tremor intensity was assessed visually for a 60 min period starting from the injection of oxotremorine and physostigmine respectively.

CC(N)C(=O)OC(C)(C)Cc1ccc(Cl)cc1 (stereo not drawn) [Alaproclate, 2-(4-chloro-phenyl)-1,1-dimethylethyl-2-aminopropanoate]
Potentiation of oxotremorine induced tremor ([1]; in words): able to enhance; also recorded: potentiates | Mean tremor score after pretreatment ([1]; alaproclate 20 mg/kg i.p., 10 min after oxotremorine 100 μg/kg s.c.): 0,7 | Mean tremor score after pretreatment ([1]; alaproclate 20 mg/kg i.p., 15 min after oxotremorine 100 μg/kg s.c.): 1,0 | Mean tremor score after pretreatment ([1]; alaproclate 20 mg/kg i.p., 30 min after oxotremorine 100 μg/kg s.c.): 0,8 | Mean tremor score after pretreatment ([1]; alaproclate 40 mg/kg i.p., 5 min after oxotremorine 100 μg/kg s.c.): 0,3 | Mean tremor score after pretreatment ([1]; alaproclate 40 mg/kg i.p., 10 min after oxotremorine 100 μg/kg s.c.): 1,0 | Mean tremor score after pretreatment ([1]; alaproclate 40 mg/kg i.p., 15 min after oxotremorine 100 μg/kg s.c.): 1,3 | Mean tremor score after pretreatment ([1]; alaproclate 40 mg/kg i.p., 30 min after oxotremorine 100 μg/kg s.c.): 1,2 | Mean tremor score after pretreatment ([1]; alaproclate 40 mg/kg i.p., 60 min after oxotremorine 100 μg/kg s.c.): 0,5 | Mean tremor score after pretreatment ([1]; alaproclate 60 mg/kg i.p., 5 min after oxotremorine 100 μg/kg s.c.): 0,1 | Mean tremor score after pretreatment ([1]; alaproclate 60 mg/kg i.p., 10 min after oxotremorine 100 μg/kg s.c.): 1,0 | Mean tremor score after pretreatment ([1]; alaproclate 60 mg/kg i.p., 15 min after oxotremorine 100 μg/kg s.c.): 1,5 | Mean tremor score after pretreatment ([1]; alaproclate 60 mg/kg i.p., 30 min after oxotremorine 100 μg/kg s.c.): 1,6 | Mean tremor score after pretreatment ([1]; alaproclate 60 mg/kg i.p., 60 min after oxotremorine 100 μg/kg s.c.): 1,0 | Potentiation of physostigmine induced tremor ([2]; in words): able to enhance; also recorded: potentiates | Mean tremor score after pretreatment ([2]; alaproclate 20 mg/kg i.p., 5 min after physostigmine 200 μg/kg s.c.): 0,3 | Mean tremor score after pretreatment ([2]; alaproclate 20 mg/kg i.p., 10 min after physostigmine 200 μg/kg s.c.): 0,8 | Mean tremor score after pretreatment ([2]; alaproclate 20 mg/kg i.p., 15 min after physostigmine 200 μg/kg s.c.): 0,8 | Mean tremor score after pretreatment ([2]; alaproclate 40 mg/kg i.p., 5 min after physostigmine 200 μg/kg s.c.): 0,3 | Mean tremor score after pretreatment ([2]; alaproclate 40 mg/kg i.p., 10 min after physostigmine 200 μg/kg s.c.): 1,0 | Mean tremor score after pretreatment ([2]; alaproclate 40 mg/kg i.p., 15 min after physostigmine 200 μg/kg s.c.): 0,7 | Mean tremor score after pretreatment ([2]; alaproclate 40 mg/kg i.p., 30 min after physostigmine 200 μg/kg s.c.): 0,3 | Mean tremor score after pretreatment ([2]; alaproclate 60 mg/kg i.p., 5 min after physostigmine 200 μg/kg s.c.): 0,7 | Mean tremor score after pretreatment ([2]; alaproclate 60 mg/kg i.p., 10 min after physostigmine 200 μg/kg s.c.): 1,3 | Mean tremor score after pretreatment ([2]; alaproclate 60 mg/kg i.p., 15 min after physostigmine 200 μg/kg s.c.): 0,8 | Mean tremor score after pretreatment ([2]; alaproclate 60 mg/kg i.p., 30 min after physostigmine 200 μg/kg s.c.): 0,7 | Tremor caused by the compound per se (tremor): does not cause tremor
